Measured values as given in patent US20230174507A1, “IMIDAZOLE 3-OXIDE DERIVATIVE BASED ACSS2 INHIBITORS AND METHODS OF USE THEREOF” (METABOMED LTD., priority 2020, published 2023).

Key:
[1] = target: T1, human ACSS2 protein (Homo sapiens, UniProt Q9NR19); assay: ACSS2 cell-free activity assay (pyrophosphatase-coupled, Biomol green); conditions: 10 nM human ACSS2, 90 minutes at 37 C, absorbance at 620 nm; read-out: ACSS2 Biochemical IC50
T1 construct: purchased OriGene Technologies, Inc
Method: ACSS2 Cell-Free Activity Assay (Cell-Free IC50)
(§1) The assay is based on a coupling reaction with Pyrophosphatase: ACSS2 is converting ATP+CoA+Acetate=>AMP+pyrophosphate+Acetyl-CoA (Ac-CoA). Pyrophosphatase converts pyrophosphate, a product of the ACSS2 reaction, to phosphate which can be detected by measuring the absorbance at 620 nm after incubation with the Biomol green reagent (Enzo life Science, BML-AK111).
(§2) Cell Free IC50 Determination:
(§3) 10 nM of human ACSS2 protein (OriGene Technologies, Inc) was incubated for 90 minutes at 37 C with various compounds' concentrations in a reaction containing 50 mM Hepes pH 7.5, 10 mM DTT, 90 mM KCl, 0.006% Tween-20, 0.1 mg/ml BSA, 2 mM MgCl2, 10 μM CoA, 5 mM NaAc, 300 μM ATP and 0.5 U/ml Pyrophosphatase (Sigma). At the end of the reaction, Biomol Green was added for 30 minutes at RT and the activity was measured by reading the absorbance at 620 nm. IC50 values were calculated using non-linear regression curve fit with 0% and 100% constrains (CDD Vault, Collaborative Drug Discovery, Inc.).

[2] = target: T2, human ACSS1 protein (Homo sapiens, UniProt Q9NUB1); assay: ACSS1 cell-free activity assay (pyrophosphatase-coupled, Biomol green); type: biochemical; conditions: 5 nM human ACSS1, 30 minutes at room temperature, absorbance at 620 nm
T2 construct: purchased MyBioSource
T2 sequence (Q9NUB1 38-689): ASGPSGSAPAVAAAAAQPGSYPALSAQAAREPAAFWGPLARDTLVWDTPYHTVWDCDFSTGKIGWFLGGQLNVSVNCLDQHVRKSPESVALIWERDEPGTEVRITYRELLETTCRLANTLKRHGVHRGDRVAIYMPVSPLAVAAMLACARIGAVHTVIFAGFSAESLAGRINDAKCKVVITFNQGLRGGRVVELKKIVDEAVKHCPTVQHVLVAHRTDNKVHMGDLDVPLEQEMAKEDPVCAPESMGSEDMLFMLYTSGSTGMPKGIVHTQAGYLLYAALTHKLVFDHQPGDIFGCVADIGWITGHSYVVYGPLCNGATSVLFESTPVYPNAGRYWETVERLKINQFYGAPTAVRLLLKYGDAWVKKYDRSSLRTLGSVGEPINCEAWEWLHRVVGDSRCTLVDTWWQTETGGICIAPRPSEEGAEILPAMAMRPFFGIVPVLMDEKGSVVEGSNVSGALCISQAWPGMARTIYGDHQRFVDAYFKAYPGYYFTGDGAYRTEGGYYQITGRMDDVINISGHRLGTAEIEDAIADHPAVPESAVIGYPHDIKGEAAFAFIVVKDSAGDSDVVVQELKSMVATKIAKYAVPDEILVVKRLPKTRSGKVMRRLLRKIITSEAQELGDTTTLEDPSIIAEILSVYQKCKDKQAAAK
Method: ACSS1 Cell-Free Activity Assay (Cell-Free IC50)
as §1, with “ACSS1” for “ACSS2”
as §2
as §3, with “5 nM” for “10 nM”, “human ACSS1” for “human ACSS2”, “protein (MyBioSource)” for “protein (OriGene Technologies, Inc)”, “for 30” for “for 90”, “at room temperature” for “at 37 C”, “MgCl2, 15” for “MgCl2, 10”

T1 sequence (Q9NR19 whole entry): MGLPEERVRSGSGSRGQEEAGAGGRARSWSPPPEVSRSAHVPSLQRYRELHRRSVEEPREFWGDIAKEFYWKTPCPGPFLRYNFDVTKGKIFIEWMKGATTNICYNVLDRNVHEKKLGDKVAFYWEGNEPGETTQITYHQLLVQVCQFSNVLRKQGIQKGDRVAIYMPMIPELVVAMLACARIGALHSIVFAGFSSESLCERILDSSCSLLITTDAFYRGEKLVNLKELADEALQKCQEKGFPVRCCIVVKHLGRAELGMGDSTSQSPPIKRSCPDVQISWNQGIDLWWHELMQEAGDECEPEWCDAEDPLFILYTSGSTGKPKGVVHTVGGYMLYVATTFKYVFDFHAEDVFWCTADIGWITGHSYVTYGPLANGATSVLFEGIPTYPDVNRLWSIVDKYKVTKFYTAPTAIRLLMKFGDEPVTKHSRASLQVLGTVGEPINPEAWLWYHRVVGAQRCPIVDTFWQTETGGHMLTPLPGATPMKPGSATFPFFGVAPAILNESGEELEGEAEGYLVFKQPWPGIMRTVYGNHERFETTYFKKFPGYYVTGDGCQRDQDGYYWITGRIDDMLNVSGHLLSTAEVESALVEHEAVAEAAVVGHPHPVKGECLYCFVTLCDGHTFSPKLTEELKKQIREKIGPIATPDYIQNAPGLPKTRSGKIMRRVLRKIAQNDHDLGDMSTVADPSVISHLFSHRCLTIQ

Structure (SMILES) | IC50 [1] [nM] | ACSS1 Biochemical IC50 (nM) [2]
CCC(F)(F)c1cccc(NC(=O)c2c(C)n(COC(C)=O)c(-c3ccc(OC)c(-c4c(C)cccc4C)c3)[n+]2[O-])c1 [Compound 200, 1-(acetoxymethyl)-4-((3-(1,1-difluoropropyl)phenyl)carbamoyl)-2-(6-methoxy-2′,6′-dimethyl-[1,1′-biphenyl]-3-yl)-5-methyl-1H-imidazole 3-oxide] | > 30 | Inactive
COc1cc(F)c(-c2[nH]c(C)c(C(=O)Nc3cccc(C(F)(F)F)c3)[n+]2[O-])nc1-c1c(F)cccc1F [Compound 208, 2-(6-(2,6-difluorophenyl)-3-fluoro-5-methoxypyridin-2-yl)-5-methyl-4-((3-(trifluoromethyl)phenyl)carbamoyl)-1H-imidazole 3-oxide] | 1 to 30 | Inactive
COc1ccc(-c2[nH]c(C)c(C(=O)Nc3cccc(C4(C(F)(F)F)CC4)c3)[n+]2[O-])cc1-c1c(C)cccc1C [Compound 206, 2-(6-methoxy-2′,6′-dimethyl-[1,1′-biphenyl]-3-yl)-5-methyl-4-((3-(1-(trifluoromethyl)cyclopropyl)phenyl)carbamoyl)-1H-imidazole 3-oxide] | > 30 | Inactive
COc1ccc(-c2[nH]c(C)c(C(=O)Nc3cccc(-c4ccc[nH]4)c3)[n+]2[O-])cc1-c1c(C)cccc1C [Compound 191, 4-((3-(1H-pyrrol-2-yl)phenyl)carbamoyl)-2-(6-methoxy-2′,6′-dimethyl-[1,1′-biphenyl]-3-yl)-5-methyl-1H-imidazole 3-oxide] | > 30 | Inactive
Cc1cccc(C)c1-c1cc(-c2c(C)cccc2C)cc(-c2[nH]c(C)c(C(=O)Nc3cccc(C(F)(F)C4CC4)c3)[n+]2[O-])c1 [Compound 132, 4-((3-(cyclopropyldifluoromethyl)phenyl)carbamoyl)-5-methyl-2-(2,2″,6,6″-tetramethyl-[1,1′:3′,1″-terphenyl]-5′-yl)-1H-imidazole 3-oxide] | 1 to 30 | Inactive
COc1ccc(-c2[nH]c(C)c(C(=O)Nc3ccc4[nH]cnc4c3)[n+]2[O-])cc1-c1c(C)cccc1C [Compound 173, 4-((1H-benzo[d]imidazol-5-yl)carbamoyl)-2-(6-methoxy-2′,6′-dimethyl-[1,1′-biphenyl]-3-yl)-5-methyl-1H-imidazole 3-oxide] | > 30 | Inactive
COc1ccc(-c2[nH]c(C)c(C(=O)Nc3cccc(C(=O)N4CCNCC4)c3)[n+]2[O-])cc1-c1c(C)cccc1C [Compound 153, 2-(6-methoxy-2′,6′-dimethyl-[1,1′-biphenyl]-3-yl)-5-methyl-4-((3-(piperazine-1-carbonyl)phenyl)carbamoyl)-1H-imidazole 3-oxide] | > 30 | Inactive
COc1ccc(-c2[nH]c(C)c(C(=O)Nc3cccc(C(F)(F)C4(C)CC4)c3)[n+]2[O-])cc1-c1c(C)cccc1C [Compound 151, 4-((3-(difluoro(1-methylcyclopropyl)methyl)phenyl)carbamoyl)-2-(6-methoxy-2′,6′-dimethyl-[1,1′-biphenyl]-3-yl)-5-methyl-1H-imidazole 3-oxide] | > 30 | Inactive
CCC(F)(F)c1cccc(NC(=O)c2c(C)[nH]c(-c3ccc(OC)c(C4CCN(C)CC4)c3)[n+]2[O-])c1 [Compound 166, N-[3-(1,1-difluoropropyl)phenyl]-2-[4-methoxy-3-(1-methyl-4-piperidyl)phenyl]-5-methyl-3-oxido-1H-imidazol-3-ium-4-carboxamide] | > 30 | Inactive
COc1ccc(-c2[nH]c(C)c(C(=O)Nc3cccc(C(=O)N4CCC4)c3)[n+]2[O-])cc1-c1c(C)cccc1C [Compound 170, 4-((3-(azetidine-1-carbonyl)phenyl)carbamoyl)-2-(6-methoxy-2′,6′-dimethyl-[1,1′-biphenyl]-3-yl)-5-methyl-1H-imidazole 3-oxide] | < 1 | Inactive
CCC(F)(F)c1cccc(NC(=O)c2c(C)[nH]c(-c3ccc(OC)c(C4CCCCC4)c3)[n+]2[O-])c1 [Compound 145, 2-(3-cyclohexyl-4-methoxyphenyl)-4-((3-(1,1-difluoropropyl)phenyl)carbamoyl)-5-methyl-1H-imidazole 3-oxide] | > 30 | Inactive
COc1ccc(-c2[nH]c(C)c(C(=O)Nc3cccc(C(=O)N4CCN(C)CC4)c3)[n+]2[O-])cc1-c1c(C)cccc1C [Compound 163, 2-[3-(2,6-dimethylphenyl)-4-methoxy-phenyl]-5-methyl-N-[3-(4-methylpiperazine-1-carbonyl)phenyl]-3-oxido-1H-imidazol-3-ium-4-carboxamide] | > 30 | Inactive
CCC(F)(F)c1cccc(NC(=O)c2c(C)[nH]c(-c3ccc(OC)c(N4CCNCC4)c3)[n+]2[O-])c1 [Compound 164, 4-((3-(1,1-difluoropropyl)phenyl)carbamoyl)-2-(4-methoxy-3-(piperazin-1-yl)phenyl)-5-methyl-1H-imidazole 3-oxide] | < 1 | Inactive
CCC(F)(F)c1cccc(NC(=O)c2c(C)[nH]c(-c3ccc(OC)c(-c4ccncn4)c3C)[n+]2[O-])c1 [Compound 144, 4-((3-(1,1-difluoropropyl)phenyl)carbamoyl)-2-(4-methoxy-2-methyl-3-(pyrimidin-4-yl)phenyl)-5-methyl-1H-imidazole 3-oxide] | > 30 | Inactive
CCC(F)(F)c1cccc(NC(=O)c2c(C)[nH]c(-c3ccc(OC)c(C4CCNCC4)c3)[n+]2[O-])c1 [Compound 162, 4-((3-(1,1-difluoropropyl)phenyl)carbamoyl)-2-(4-methoxy-3-(piperidin-4-yl)phenyl)-5-methyl-1H-imidazole 3-oxide] | < 1 | Inactive
CCC(F)(F)c1cccc(NC(=O)c2c(C)[nH]c(-c3ccc(OC)c(-c4cnccn4)c3C)[n+]2[O-])c1 [Compound 127, 4-((3-(1,1-difluoropropyl)phenyl)carbamoyl)-2-(4-methoxy-2-methyl-3-(pyrazin-2-yl)phenyl)-5-methyl-1H-imidazole 3-oxide] | > 30 | Inactive
CCC(F)(F)c1cccc(NC(=O)c2c(C)n(COP(=O)(O)OC(C)(C)C)c(-c3ccc(OC)c(-c4c(C)cccc4C)c3)[n+]2[O-])c1 [Compound 188, 1-(((tert-butoxy(hydroxy)phosphoryl)oxy)methyl)-4-((3-(1,1-difluoropropyl)phenyl)carbamoyl)-2-(6-methoxy-2′,6′-dimethyl-[1,1′-biphenyl]-3-yl)-5-methyl-1H-imidazole 3-oxide] | 1 to 30 | Inactive
CCC(F)(F)c1cccc(NC(=O)c2c(C)n(COP(=O)(OC)OC)c(-c3ccc(OC)c(-c4c(C)cccc4C)c3)[n+]2[O-])c1 [Compound 205, 4-((3-(1,1-difluoropropyl)phenyl)carbamoyl)-1-(((dimethoxyphosphoryl)oxy)methyl)-2-(6-methoxy-2′,6′-dimethyl-[1,1′-biphenyl]-3-yl)-5-methyl-1H-imidazole 3-oxide] | > 30 | Inactive
